{"source": "patent US6043228A", "about": "“O^6 -substituted guanine derivatives, a process for their preparation and their use in treating tumor cells” (Cancer Research Campaign Technology Limited, priority 1993, dated 2000)", "key": {"[1]": {"tested_on": "bone marrow cells", "assay": "Inactivator toxicity in bone marrow cells (GM-CFC colonies, inactivator alone)", "format": "cell-based, human", "conditions": "10 μM, 5 patients (Table 7)", "source_text": "For the granulocyte/macrophage colony-forming cell (GM-CFC) assay primary human bone marrow samples were obtained from patients undergoing cardiothoracic surgery. […] The colonies represented precursor cells of the granulocyte/macrophage lineage (huGM-CFC). Survival was expressed as a % of the number of colonies at zero dose temozolomide."}, "[2]": {"tested_on": "A375 tumour xenografts", "assay": "Xenograft study: sensitization of A375 tumour xenografts to BCNU", "format": "in vivo, nude mice", "conditions": "inactivator 30 or 60 mg/kg + BCNU 10-25 mg/kg i.p. (FIGS. 9-13)", "description": "OX6 OPT, England (OLAC mice). […] For this reason lower doses were administered. Cells (10^6) in 100 μl of PBS were injected subcutaneously into the right-hand flank of 8-10 week old nu/nu athymic mice. […] The experimental animals were also weighed every 1-2 days. Measurements continued until tumours in the control animals reached the maximum allowable volume (i.e. 1 cm×1 cm×1 cm)."}, "[3]": {"tested_on": "ATase", "assay": "ATase activity in tissues of nude mice after inactivator", "format": "in vivo, mouse", "conditions": "10 mg/kg i.p., 24 and 48 hours (Table 10)", "description": "ATase substrate DNA was prepared by incubation of purified calf thymes DNA with N-[^3 H]-methyl-N-nitrosuourea (18.7 Ci/mmole, Amersham International). Cell or tissue extracts (see 4.4) were incubated with [^3 H]-methylated-DNA substrate (100 μl containing 6.7 μg of DNA and 100 fmol of O^6 -[^3 H]methylguanine) at 37° C. for 60 mins. Following acid hydrolysis of the DNA as precviously described^21the [^3 H]-methylated protein was recovered and quantitated by liquid scintillation counting. […]\nThe mice in the tests shown in FIGS. 17 and 18 were BALB-C derived athymic male mice (nu/nu athymic) from the in-house breeding colony at the Paterson Institute for Cancer Research as described above (Animal Services Unit-ASU Mice).\nAnimals were given a single dose of B.4280 (10 mg/kg i.p.) and sacrificed"}, "[4]": {"tested_on": "DBA2 mice", "assay": "Toxicity of inactivators in combination with BCNU in DBA2 mice", "format": "in vivo, mouse", "conditions": "Table 11", "source_text": "All agents were given as a single i.p. dose"}}, "data": [{"smiles": "Nc1nc(OCc2cccs2)c2nc[nH]c2n1", "note": "[B.4205, 0^6 -thenylguanine]", "values": [{"measurement": "toxic effect of inactivator alone on bone marrow cells, in words", "setting": "[1]", "result": "comparable to those for O^6 -benzylguanine"}, {"measurement": "sensitization of A375 xenografts to BCNU (tumour volume), in words", "setting": "[2]", "result": "comparable to O^6 -benzylguanine (BeG) in reducing tumour volume"}]}, {"smiles": "Nc1nc(OCc2cc(Br)cs2)c2nc[nH]c2n1", "note": "[B.4280, O^6-(4-bromothenyl)guanine]", "values": [{"measurement": "recovery of ATase activity in tissues, in words", "setting": "[3]", "result": "activity in brain, testis and bone marrow was near to control levels by 24 hours whereas lung and spleen activity had not completely recovered by 48 hours"}, {"measurement": "acute toxicity in combination with BCNU in DBA2 mice, in words", "setting": "[4]", "result": "considerably less acutely toxic than B.4205 or BeG"}]}]}
